According to ChEMBL document CHEMBL1201862, “PubChem BioAssay data set” (2004):
Values belong to the molecule of their own block, whether it stands above or below them. Activity calls are given as the source filed them.

What was measured:
[1] = target: Troponin, cardiac muscle (Homo sapiens, UniProt P19429+P45379+P63316); assay: Fluorescence-based biochemical high throughput dose response assay for activators of the calcium sensitivity of cardiac Regulated Thin Filaments (RTF). [Related pubchem assays (depositor defined):AID493008, AID493018, AID504382, AID504383]; assay type: protein-complex assay
[2] = target: T1, Mannose-6-phosphate isomerase (Homo sapiens, UniProt P34949); assay: PMI enzyme inhibitors, confirmation, biochemical, fluorescence intensity (AID 1535)
T1 sequence (P34949 whole entry): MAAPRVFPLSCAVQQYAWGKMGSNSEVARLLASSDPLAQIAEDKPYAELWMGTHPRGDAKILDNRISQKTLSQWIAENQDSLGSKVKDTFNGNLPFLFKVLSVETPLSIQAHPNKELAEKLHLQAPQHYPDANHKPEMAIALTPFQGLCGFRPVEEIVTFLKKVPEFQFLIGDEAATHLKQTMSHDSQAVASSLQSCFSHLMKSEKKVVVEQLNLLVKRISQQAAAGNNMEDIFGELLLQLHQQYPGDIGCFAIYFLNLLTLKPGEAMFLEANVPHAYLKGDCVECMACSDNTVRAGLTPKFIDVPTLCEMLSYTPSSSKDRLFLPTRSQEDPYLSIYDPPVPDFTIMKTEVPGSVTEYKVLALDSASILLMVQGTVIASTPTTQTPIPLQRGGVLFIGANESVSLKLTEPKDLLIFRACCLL

[3] = target: Phosphomannomutase 2 (Homo sapiens, UniProt O15305); assay: Counter screen SAR assay for PMM2 inhibitors via a fluorescence intensity assay. [Related pubchem assays (depositor defined):AID1545, AID1574]
[4] = target: T2, Short transient receptor potential channel 4 (Mus musculus, UniProt Q9QUQ5); assay: TRPC4 positive allosteric modulators, dose response, cell-based, HEK293 TRPC4/mu-opioid, Fluo-4 calcium, EC20 DAMGO (AID 434941); assay type: functional
T2 sequence (Q9QUQ5 whole entry): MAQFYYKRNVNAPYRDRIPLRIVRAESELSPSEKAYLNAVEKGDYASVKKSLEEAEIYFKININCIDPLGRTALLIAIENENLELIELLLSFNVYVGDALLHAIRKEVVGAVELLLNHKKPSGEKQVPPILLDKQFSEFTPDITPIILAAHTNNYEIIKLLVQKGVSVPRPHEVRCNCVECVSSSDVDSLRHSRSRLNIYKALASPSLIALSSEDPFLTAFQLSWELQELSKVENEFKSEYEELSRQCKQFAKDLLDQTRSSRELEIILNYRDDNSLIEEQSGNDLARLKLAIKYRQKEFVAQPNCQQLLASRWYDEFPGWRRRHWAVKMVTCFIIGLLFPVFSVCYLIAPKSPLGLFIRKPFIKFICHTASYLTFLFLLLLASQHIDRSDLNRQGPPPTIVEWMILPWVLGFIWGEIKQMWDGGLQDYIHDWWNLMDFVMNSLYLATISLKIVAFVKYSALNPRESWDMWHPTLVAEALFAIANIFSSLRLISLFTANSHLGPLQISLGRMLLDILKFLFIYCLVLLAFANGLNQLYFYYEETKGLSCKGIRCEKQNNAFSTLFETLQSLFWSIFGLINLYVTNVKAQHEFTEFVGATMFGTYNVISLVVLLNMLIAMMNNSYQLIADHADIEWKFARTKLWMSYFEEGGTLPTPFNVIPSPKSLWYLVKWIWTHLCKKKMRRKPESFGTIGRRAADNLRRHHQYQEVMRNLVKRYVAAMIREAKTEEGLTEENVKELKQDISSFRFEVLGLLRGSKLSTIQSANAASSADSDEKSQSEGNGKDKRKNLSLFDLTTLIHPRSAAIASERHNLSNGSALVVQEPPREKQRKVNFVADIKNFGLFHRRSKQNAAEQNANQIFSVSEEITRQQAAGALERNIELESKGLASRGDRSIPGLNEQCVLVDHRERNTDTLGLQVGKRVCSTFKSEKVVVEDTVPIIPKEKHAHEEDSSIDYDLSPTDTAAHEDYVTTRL

[5] = NIH-3T3 fibroblast cytotoxicity, dose response, cytotoxicity control, cell-based, fluorescence, Alamar Blue, secondary assay (AID 2327); assay type: functional;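 also: NIH-3T3 mouse fibroblasts cultured with fluconazole at 8 µg/mL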
[6] = C. albicans growth with fluconazole, confirmation, fluorescence, retest (AID 2467); assay type: functional, cell-based
[7] = target: T3, Coagulation factor XII (Homo sapiens, UniProt P00748); assay type: functional;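 also: activated factor XIIa alpha cleaving a fluorogenic AMC peptide substrate; inhibitor potency from loss of enzyme activity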
T3 sequence (P00748 whole entry): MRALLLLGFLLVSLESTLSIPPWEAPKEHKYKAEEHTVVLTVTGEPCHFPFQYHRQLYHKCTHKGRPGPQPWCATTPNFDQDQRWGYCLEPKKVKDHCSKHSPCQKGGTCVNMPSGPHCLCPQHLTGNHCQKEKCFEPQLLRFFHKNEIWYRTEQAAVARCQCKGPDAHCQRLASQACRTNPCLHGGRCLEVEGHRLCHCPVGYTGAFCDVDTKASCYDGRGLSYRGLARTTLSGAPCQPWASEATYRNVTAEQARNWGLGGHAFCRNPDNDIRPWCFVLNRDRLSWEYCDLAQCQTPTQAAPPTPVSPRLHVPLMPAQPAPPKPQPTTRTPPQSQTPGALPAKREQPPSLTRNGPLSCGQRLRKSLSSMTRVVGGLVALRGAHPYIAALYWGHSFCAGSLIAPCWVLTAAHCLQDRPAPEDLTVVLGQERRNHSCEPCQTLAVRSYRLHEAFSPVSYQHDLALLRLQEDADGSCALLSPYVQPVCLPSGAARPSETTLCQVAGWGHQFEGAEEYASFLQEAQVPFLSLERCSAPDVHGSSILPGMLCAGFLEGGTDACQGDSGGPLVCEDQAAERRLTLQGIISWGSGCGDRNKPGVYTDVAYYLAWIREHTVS

[8] = target: DNA damage-inducible transcript 3 protein (Mus musculus, UniProt P35639); assay type: functional, Cricetulus griseus
[9] = target: X-box-binding protein 1 (Homo sapiens, UniProt P17861); assay type: functional, Cricetulus griseus;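 also: confirmatory dose-response counter-screen serving a CHOP assay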
[10] = target: T4, Fatty acid synthase (Homo sapiens, UniProt P49327); assay: FAS thioesterase domain inhibitors, dose response, biochemical, endpoint fluorescence intensity, uHTS hits (AID 624327); assay type: functional;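 also: fluorescence from hydrolysis of an O-methyl fluorescein acyl ester substrate by the enzyme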
[11] = target: T4, Fatty acid synthase; assay: FAS thioesterase domain inhibitors, dose response, biochemical, kinetic fluorescence intensity (AID 624326); assay type: functional;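 also: rate of fluorescence rise from hydrolysis of a fluorogenic O-methyl fluorescein ester substrate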
[12] = target: Cytochrome P450 3A4 (Homo sapiens, UniProt P08684);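 also: CYP3A4 tested as one member of a cytochrome P450 panel screen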
[13] = target: Ion channel NompC (Danio rerio, UniProt Q7T1G6); assay: Dose response cell-based high-throughput screening assay for agonists of the transient receptor potential channel N1 (TRPN1). [Related pubchem assays (depositor defined):AID1424, AID1448]; assay type: functional
[14] = target: T5, Mucolipin-3 (Homo sapiens, UniProt Q8TDD5); assay: Fluorescence counterscreen assay for […] agonists: dose response cell-based high-throughput screening assay to identify agonists of the transient receptor potential channel ML3 (TRPML3). [Related pubchem assays: 1424, 1448 ]; assay type: functional
T5 sequence (Q8TDD5 whole entry): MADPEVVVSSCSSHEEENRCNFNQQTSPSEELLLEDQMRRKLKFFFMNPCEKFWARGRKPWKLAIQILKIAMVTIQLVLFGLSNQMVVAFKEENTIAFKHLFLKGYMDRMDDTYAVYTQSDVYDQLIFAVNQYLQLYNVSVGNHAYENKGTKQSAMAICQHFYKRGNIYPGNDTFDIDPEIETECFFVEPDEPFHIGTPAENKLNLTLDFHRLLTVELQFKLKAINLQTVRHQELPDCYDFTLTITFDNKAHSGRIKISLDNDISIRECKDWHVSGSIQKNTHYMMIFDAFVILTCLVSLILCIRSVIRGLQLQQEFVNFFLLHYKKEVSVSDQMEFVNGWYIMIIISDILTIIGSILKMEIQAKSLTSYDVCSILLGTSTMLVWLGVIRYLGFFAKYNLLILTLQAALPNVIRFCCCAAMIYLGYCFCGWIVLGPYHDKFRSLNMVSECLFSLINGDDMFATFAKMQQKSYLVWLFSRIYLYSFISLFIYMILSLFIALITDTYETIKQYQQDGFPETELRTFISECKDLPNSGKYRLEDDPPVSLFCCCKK

[15] = target: E3 ubiquitin-protein ligase Mdm2/Protein Mdm4 (Homo sapiens, UniProt O15151+Q00987); assay: Mdm2-MdmX interaction inhibitors, dose response, luminescence detection (AID 504593); assay type: functional
[16] = system: INS1; assay: beta cell apoptosis inhibitors, cytokine rescue, dose response, luminescence, retest (AID 449756); assay type: functional, cell-based; conditions: Rattus norvegicus;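 also: cell death triggered by IL-1 beta plus TNF-alpha plus IFN-gamma mixture; protective hits raise ATP signal compared with cytokine alone wells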
[17] = Shn3 3'UTR reporter inhibitors, dose response, cell-based, Clone20 osteoblasts, firefly luciferase, cherry-picked (AID 624132); assay type: functional;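 also: firefly luciferase luminescence from reporter carrying the Shn3 3'UTR in osteoblasts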
[18] = HepG2 cell cytotoxicity, dose response, cytotoxicity control for Shn3 inhibitor project, CellTiter-Glo, cherry-picked (AID 624134); assay type: functional, cell-based
[19] = control 3'UTR Renilla luciferase suppression, dose response, counter-screen for Shn3 inhibitor project, cell-based, Clone20-Shn3RL, cherry-picked (AID 624133); assay type: functional
[20] = target: Alkaline phosphatase, placental type (Homo sapiens, UniProt P05187); assay: PLAP enzyme inhibitors, confirmation, biochemical, luminescence (AID 1512); assay type: functional
[21] = target: Alkaline phosphatase, tissue-nonspecific isozyme (Homo sapiens, UniProt P05186); assay: human TNAP enzyme inhibitors, SAR follow-up, biochemical, luminescent, dose response (AID 1056)
[22] = target: Voltage-dependent T-type calcium channel subunit alpha-1H (Homo sapiens, UniProt O95180); assay: Cav3.2 T-type channel inhibitors, synthesized analogs, SAR follow-up, cell-based, synthetic library set 2, HEK293 HH8, Fluo-4 (AID 493023); assay type: functional
[23] = target: Mu-type opioid receptor (Homo sapiens, UniProt P35372); assay: SAR Analysis of Antagonists of the MOR Receptor using an Image-Based Assay - Set 3. [Related pubchem assays (depositor defined):AID1777, AID1785, AID1786, AID1966, AID2133, AID2136, AID2284, AID2285, AID2420]; assay type: functional
[24] = target: T6, Kappa-type opioid receptor (Homo sapiens, UniProt P41145); assay: SAR analysis of small molecule antagonists of the kappa opioid receptor via a luminescent beta-arrestin assay - Set 6. [Related pubchem assays (depositor defined):AID1777, AID1778, AID1785, AID1786, AID1966, AID2133, AID2136, AID2285]; assay type: functional
[25] = target: Delta-type opioid receptor (Homo sapiens, UniProt P41143); assay: SAR Analysis of Antagonists of the DOR Receptor using an Image-Based Assay - Set 3. [Related pubchem assays (depositor defined):AID1777, AID1785]; assay type: functional;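 also: U2OS cells expressing DOR1 and beta-arrestin GFP stimulated with 100 nM SNC80; imaging of GFP-tagged beta-arrestin moving into spots after receptor activation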
[26] = target: T6, Kappa-type opioid receptor; assay: SAR analysis of small molecule antagonists of the kappa opioid receptor via a luminescent beta-arrestin assay - Set 3. [Related pubchem assays (depositor defined):AID1777, AID1778, AID1785, AID1786, AID1966, AID2133, AID2136, AID2285, AID2495]; assay type: functional
[27] = target: T6, Kappa-type opioid receptor; assay: SAR analysis of Antagonists of the Kappa Opioid Receptor (KOR) using an Image-Based Assay - Set 4. [Related pubchem assays (depositor defined):AID1777, AID1785]; assay type: functional

T6 sequence (P41145 whole entry): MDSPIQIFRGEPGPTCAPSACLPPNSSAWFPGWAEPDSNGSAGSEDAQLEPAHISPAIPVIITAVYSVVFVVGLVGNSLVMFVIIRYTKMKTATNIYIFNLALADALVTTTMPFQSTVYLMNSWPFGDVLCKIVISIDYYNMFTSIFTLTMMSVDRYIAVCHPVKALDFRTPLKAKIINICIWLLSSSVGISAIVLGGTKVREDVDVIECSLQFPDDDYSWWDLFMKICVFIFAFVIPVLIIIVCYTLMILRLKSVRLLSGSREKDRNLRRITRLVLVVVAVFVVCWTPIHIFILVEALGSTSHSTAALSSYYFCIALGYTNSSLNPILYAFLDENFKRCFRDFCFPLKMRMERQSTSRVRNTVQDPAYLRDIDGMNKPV
T4 sequence (P49327 whole entry, the tested form may be a part): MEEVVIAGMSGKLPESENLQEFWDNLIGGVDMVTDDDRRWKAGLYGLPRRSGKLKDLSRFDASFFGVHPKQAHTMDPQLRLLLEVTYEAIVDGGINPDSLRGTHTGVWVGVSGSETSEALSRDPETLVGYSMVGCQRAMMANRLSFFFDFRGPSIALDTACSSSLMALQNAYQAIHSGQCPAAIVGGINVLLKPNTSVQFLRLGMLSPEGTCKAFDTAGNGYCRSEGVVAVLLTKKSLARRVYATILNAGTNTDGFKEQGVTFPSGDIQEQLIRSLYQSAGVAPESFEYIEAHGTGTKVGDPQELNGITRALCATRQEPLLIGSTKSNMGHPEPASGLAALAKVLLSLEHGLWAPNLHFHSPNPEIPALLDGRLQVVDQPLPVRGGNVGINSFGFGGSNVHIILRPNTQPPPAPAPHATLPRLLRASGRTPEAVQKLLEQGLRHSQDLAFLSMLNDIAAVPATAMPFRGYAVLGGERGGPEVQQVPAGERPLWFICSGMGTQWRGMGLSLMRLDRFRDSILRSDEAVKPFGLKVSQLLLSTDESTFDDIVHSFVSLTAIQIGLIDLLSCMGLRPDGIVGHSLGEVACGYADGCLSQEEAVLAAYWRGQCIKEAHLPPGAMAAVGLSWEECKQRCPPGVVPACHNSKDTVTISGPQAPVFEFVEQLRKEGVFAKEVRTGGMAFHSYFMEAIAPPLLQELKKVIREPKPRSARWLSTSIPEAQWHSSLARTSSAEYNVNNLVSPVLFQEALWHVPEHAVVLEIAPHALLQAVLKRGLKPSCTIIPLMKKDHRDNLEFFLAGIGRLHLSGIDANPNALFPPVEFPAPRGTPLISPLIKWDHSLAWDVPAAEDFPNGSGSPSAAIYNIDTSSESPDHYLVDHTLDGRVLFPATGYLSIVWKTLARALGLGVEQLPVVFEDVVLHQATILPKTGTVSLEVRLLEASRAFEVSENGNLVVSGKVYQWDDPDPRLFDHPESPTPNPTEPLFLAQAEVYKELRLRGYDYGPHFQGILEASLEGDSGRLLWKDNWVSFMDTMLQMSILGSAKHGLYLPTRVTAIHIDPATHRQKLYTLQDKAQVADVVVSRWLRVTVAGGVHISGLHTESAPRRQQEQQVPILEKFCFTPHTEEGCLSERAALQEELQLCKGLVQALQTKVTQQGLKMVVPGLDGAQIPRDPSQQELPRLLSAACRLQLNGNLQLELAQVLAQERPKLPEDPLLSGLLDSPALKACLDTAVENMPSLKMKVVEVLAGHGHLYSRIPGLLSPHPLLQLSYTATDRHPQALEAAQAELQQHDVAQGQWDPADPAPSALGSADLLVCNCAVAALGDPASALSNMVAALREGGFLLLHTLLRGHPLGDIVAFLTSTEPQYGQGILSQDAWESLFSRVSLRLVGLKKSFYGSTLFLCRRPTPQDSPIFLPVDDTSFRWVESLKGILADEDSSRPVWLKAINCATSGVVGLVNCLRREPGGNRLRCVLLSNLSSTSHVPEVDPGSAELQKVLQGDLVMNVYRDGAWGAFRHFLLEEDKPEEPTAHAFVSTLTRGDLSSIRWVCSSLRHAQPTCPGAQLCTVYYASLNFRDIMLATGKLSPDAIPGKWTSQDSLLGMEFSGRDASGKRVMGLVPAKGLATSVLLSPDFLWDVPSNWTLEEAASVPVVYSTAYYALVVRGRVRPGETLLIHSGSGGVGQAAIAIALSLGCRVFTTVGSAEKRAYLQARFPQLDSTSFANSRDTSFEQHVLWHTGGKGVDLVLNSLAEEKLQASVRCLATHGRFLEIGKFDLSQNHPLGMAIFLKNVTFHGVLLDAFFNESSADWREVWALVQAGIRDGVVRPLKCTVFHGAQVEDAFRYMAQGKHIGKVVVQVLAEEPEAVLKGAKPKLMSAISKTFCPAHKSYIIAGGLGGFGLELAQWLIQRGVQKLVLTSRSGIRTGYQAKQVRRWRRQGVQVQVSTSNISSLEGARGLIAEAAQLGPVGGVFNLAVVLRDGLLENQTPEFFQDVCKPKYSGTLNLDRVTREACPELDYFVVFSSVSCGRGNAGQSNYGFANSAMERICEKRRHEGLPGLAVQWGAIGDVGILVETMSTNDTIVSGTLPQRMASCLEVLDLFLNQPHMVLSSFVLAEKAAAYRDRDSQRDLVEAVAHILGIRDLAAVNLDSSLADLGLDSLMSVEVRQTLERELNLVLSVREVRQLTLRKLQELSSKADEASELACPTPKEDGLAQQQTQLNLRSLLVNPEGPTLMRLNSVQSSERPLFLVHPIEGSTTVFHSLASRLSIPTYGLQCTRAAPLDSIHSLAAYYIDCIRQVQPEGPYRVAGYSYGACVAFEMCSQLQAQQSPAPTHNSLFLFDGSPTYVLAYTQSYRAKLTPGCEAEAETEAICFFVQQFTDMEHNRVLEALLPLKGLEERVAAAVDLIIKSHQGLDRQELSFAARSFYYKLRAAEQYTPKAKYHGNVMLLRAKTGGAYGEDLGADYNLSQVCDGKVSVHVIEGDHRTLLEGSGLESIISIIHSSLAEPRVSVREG
Chain of Ion channel NompC (Q7T1G6 whole entry): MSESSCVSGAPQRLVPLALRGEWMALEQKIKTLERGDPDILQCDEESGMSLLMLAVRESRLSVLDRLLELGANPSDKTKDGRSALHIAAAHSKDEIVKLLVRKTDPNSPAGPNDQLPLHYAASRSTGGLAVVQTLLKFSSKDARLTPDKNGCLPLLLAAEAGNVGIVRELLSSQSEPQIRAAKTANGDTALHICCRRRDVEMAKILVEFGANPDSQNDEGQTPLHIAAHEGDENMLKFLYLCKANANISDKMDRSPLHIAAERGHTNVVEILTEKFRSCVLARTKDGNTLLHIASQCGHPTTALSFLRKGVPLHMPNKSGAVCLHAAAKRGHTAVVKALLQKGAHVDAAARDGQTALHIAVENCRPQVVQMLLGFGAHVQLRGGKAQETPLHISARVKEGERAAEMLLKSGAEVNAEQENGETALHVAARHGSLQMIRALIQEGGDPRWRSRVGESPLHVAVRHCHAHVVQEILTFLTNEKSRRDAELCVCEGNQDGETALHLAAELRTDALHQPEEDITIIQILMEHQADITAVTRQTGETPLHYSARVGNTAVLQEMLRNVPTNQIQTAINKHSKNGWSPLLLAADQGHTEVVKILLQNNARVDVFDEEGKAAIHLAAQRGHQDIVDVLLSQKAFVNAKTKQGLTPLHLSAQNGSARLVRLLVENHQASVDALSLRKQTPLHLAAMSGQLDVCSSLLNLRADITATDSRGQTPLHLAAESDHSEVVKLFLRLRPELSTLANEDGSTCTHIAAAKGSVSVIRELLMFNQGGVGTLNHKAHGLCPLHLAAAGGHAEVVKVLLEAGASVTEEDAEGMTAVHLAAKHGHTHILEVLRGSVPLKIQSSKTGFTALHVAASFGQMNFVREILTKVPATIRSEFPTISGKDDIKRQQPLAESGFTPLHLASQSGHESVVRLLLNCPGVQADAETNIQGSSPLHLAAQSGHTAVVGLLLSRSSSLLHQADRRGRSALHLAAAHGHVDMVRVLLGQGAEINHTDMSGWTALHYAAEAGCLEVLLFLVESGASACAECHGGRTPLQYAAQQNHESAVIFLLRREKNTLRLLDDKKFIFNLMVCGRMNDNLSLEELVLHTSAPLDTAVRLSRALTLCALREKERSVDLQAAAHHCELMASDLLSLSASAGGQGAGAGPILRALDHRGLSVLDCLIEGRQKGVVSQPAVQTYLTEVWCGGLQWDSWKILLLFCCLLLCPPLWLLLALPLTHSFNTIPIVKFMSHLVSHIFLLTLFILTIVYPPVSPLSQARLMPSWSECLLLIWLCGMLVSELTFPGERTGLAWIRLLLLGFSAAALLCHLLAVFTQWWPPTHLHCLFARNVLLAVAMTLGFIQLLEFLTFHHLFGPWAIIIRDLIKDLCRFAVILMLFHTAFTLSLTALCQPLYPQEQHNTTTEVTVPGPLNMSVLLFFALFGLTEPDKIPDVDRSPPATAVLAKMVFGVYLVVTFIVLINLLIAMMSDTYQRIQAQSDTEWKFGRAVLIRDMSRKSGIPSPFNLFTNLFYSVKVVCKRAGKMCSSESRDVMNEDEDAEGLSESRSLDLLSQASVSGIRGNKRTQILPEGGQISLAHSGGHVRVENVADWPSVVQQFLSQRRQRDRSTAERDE
Chain of X-box-binding protein 1 (P17861 whole entry, the tested form may be a part): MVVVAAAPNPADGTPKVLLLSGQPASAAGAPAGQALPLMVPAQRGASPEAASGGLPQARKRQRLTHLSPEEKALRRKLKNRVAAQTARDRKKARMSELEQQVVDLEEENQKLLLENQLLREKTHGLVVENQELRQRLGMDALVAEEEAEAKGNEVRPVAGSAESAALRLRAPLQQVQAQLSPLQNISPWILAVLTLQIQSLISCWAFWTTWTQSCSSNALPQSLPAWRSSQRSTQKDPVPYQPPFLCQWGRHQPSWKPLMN
Chain of DNA damage-inducible transcript 3 protein (P35639 whole entry): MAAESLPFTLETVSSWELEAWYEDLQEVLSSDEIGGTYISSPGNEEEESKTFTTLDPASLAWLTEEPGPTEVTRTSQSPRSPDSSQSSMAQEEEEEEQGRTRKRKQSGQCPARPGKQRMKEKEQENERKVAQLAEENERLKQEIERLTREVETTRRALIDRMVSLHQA

EC50 [1]: > 71.5 µM (inactive)
SMILES: Cc1cc(S(=O)(=O)N2CCCC(C(=O)Nc3ccc(C(=O)O)cc3)C2)ccc1Cl (centres undefined)

IC50 [2]: > 50 µM (inactive)
IC50 [3]: > 100 µM (inactive)
SMILES: CCOC(=O)c1ccc(NC2Nc3cc(C)nn3S2)cc1 (centres undefined)

EC50 [4]: 6.68 µM (active)
SMILES: Cc1cc(-c2ccc(C)c(S(=O)(=O)N3CCN(C(=O)c4ccco4)CC3)c2)on1

EC50 [22]: 2.4 µM (active)
SMILES: CC(C)(C)CCN1CCC[C@H](NC(=O)COc2ccc(F)cc2Cl)C1

IC50 [23]: > 32 µM (inactive)
IC50 [24]: 6.93 µM (active)
IC50 [25]: > 32 µM (inactive)
IC50 [26]: 3.44 µM (active)
IC50 [27]: 0.096 µM (active)
SMILES: O=C(Cn1c(=O)c2cccn2c2cccnc21)NCCCN1CCN(c2ccc(Cl)cc2)CC1

More lines, now with the values behind:

SMILES: Cc1cc(C)c(C)c(S(=O)(=O)ON2C(=O)c3ccccc3C2=O)c1C
EC50 [5]: 3.15 µM (inconclusive)
EC50 [6]: 4.78 µM (active)
IC50 [7]: 12.9 µM (active)
Absolute IC50 (CHOP) [8]: 10 µM
Absolute IC50 (XBP1) [9]: 10 µM
IC50 [10]: 0.61 µM (active)
IC50 [11]: 0.417 µM (active)
AC50 [12]: 39.8 µM (inconclusive)

SMILES: N#C/C(=C(/O)C(Cl)(Cl)Cl)c1nc2ccccc2[nH]1
EC50 [13]: > 29.9 µM (inactive)
EC50 [14]: > 29.9 µM (not active)

SMILES: CCOc1cc(N2CCOCC2)c(OCC)cc1NC(=O)COc1cccc2cccnc12
EC50 [5]: > 150 µM (inactive)
EC50 [6]: > 38 µM (not active)
IC50 [15]: 4.99 µM (active)
AC50 [16]: 3.83 µM (active)
AC50 [17]: 2.41 µM (active)
AC50 [18]: 8.92 µM (active)
AC50 [19]: 5.04 µM (active)

SMILES: COc1ccc(C(=O)CSc2nc3cc(C)c(C)cc3[nH]2)cc1OC
IC50 [20]: > 100 µM (inactive)
IC50 [21]: > 100 µM (inactive)
